These are literature values, as cited in patent publication US6514992B1, “Caspases and apoptosis” (SmithKline Beecham Corporation, priority 1998, dated 2003).

The subject of this data set is osteoclasts of murine bone marrow cultures. The settings on record: murine bone marrow cultures grown for 6 days in vitro.

As for “TGF-β1: cytokine cited as inducing apoptosis in osteoclasts of murine bone marrow cultures”, the “apoptosis induced in osteoclasts” value is “approx. 30%”.
